Laboratory results published in patent publication US5965744A, “Ortho-substituted benzoylguanidines, including composition and methods of using them” (priority 1993, dated 1999).
Where a name gives a salt, the structure may show the parent alone.

Legend:
[1] = biological target: T1, Na^+ /H^+ Exchanger of Rabbit Erythrocytes (Oryctolagus cuniculus, UniProt P23791); experiment: Inhibition of the Na^+ /H^+ Exchanger of Rabbit Erythrocytes (Na^+ influx by flame photometry); type: cell-based, rabbit (New Zealand White); details: cholesterol-fed rabbits, pH 7.4, 37° C.
T1 construct: The blood was removed from the aural arteries; endogenous in cells; host or cells: erythrocytes of cholesterol-fed New Zealand White rabbits (whole blood samples)
Text: Inhibition of the Na^+ /H^+ Exchanger of Rabbit Erythrocytes
New Zealand White rabbits (Ivanovas) received a standard diet containing 2% cholesterol for six weeks in order to activate the Na^+ /H^+ exchange and thus to be able to determine, by flame photometry, the Na^+ influx into the erythrocytes via Na^+ /H^+ exchange. The blood was removed from the aural arteries and rendered incoagulable using 25 IU of potassium heparin. A part of each sample was used for the duplicate determination of the hematocrit by means of centrifugation. Aliquots of in each case 100 μl were used for measuring the initial Na^+ content of the erythrocytes.
In order to determine the amiloride-sensitive sodium influx, 100 μl of each blood sample were in each case incubated, at pH 7.4 and 37° C., in 5 ml of a hyperosmolar salt/sucrose medium (mmol/l: 140 NaCl, 3 KCl, 150 sucrose, 0.1 ouabain, 20 tris(hydroxymethyl)aminomethane). The erythrocytes were then washed three times with ice-cold MgCl2 /ouabain solution ([…]: 112 MgCl2, 0.1 ouabain) and hemolyzed in 2.0 ml of distilled water. The intracellular sodium content was determined by flame photometry.
The net influx of Na^+ was calculated from the difference between the initial sodium values and the sodium content of the erythrocytes following incubation. The amiloride-inhibitable sodium influx was calculated from the difference in the sodium content of the erythrocytes following incubation with and without amiloride 3×10^-4 mol/l. This method was also employed in the case of the compounds according to the invention.

cardiac arrhythmia = details: cited from earlier work
rat hearts = details: isolated rat hearts, cited from earlier work

T1 sequence (P23791 whole entry): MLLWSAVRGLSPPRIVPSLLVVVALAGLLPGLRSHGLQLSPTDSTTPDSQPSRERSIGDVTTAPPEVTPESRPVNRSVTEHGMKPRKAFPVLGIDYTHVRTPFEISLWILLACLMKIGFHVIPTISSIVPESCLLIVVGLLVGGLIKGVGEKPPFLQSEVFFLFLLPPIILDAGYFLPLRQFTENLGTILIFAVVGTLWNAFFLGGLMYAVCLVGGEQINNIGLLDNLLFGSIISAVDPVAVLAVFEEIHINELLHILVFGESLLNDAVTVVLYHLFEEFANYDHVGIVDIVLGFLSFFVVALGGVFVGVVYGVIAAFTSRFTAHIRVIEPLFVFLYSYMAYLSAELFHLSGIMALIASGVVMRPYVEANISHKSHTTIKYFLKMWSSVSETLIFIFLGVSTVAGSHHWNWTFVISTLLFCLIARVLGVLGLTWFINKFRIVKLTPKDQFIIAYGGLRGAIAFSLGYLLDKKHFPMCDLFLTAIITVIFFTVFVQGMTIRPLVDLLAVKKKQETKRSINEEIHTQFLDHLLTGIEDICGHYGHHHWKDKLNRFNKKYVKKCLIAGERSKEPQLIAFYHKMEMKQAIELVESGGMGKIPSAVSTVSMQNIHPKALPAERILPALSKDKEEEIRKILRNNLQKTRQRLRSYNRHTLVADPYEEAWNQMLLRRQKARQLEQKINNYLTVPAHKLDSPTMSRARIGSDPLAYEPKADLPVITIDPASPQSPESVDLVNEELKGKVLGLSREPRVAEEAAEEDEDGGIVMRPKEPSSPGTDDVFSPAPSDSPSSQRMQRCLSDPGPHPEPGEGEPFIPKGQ

Row | SMILES | IC50 [1] | also measured
1 | N=C(N)NC(=O)c1cccc(Cl)c1Cl [Example 1, 2,3-Dichlorobenzoylguanidine hydrochloride] | > 1000 nM | 
2 | N=C(N)NC(=O)c1cccc(C(F)(F)F)c1F [Example 2, 2-Fluoro-3-trifluoromethylbenzoylguanidine hydrochloride] | 2000 nM | 
3 | N=C(N)NC(=O)c1ccc(Cl)cc1Cl [Example 3, 2,4-Dichlorobenzoylguanidine hydrochloride] | 8000 nM | 
4 | N=C(N)NC(=O)c1ccc(C(F)(F)F)cc1F [Example 4, 2-Fluoro-4-trifluoromethylbenzoylguanidine hydrochloride] | 3000 nM | 
5 | Cc1ccc(C)c(C(=O)NC(=N)N)c1 [Example 5, 2,5-Dimethylbenzoylguanidine hydrochloride] | 2000 nM | 
6 | N=C(N)NC(=O)c1nc(Cl)c(N)nc1N [amiloride, Amiloride] |  | undesirable side effects when treating cardiac arrhythmia (cardiac arrhythmia; accompanying the antiarrhythmic effect): hypotensive and saluretic effects; antiarrhythmic effect (cardiac arrhythmia; as antiarrhythmic agent): only weakly expressed; suppression of artificially induced ventricular fibrillation (rat hearts): completely suppress
7 | CCN(c1nc(N)c(C(=O)NC(=N)N)nc1Cl)C(C)C [ethylisopropylamiloride, Ethylisopropylamiloride] |  | potency relative to amiloride in ventricular fibrillation model (rat hearts; compared with amiloride): even more potent than amiloride

The next lines start with results.

Row | IC50 [1] | SMILES | also measured
8 | 1500 nM | N=C(N)NC(=O)c1cc(Cl)ccc1Cl [Example 6, 2,5-Dichlorobenzoylguanidine hydrochloride] | 
9 | 160 nM | N=C(N)NC(=O)c1cc(C(F)(F)F)ccc1C(F)(F)F [Example 7, 2,5-Bis(trifluoromethyl)benzoylguanidine hydrochloride] | 
10 | 700 nM | N=C(N)NC(=O)c1cc(C(F)(F)F)ccc1F [Example 8, 2-Fluoro-5-trifluoromethylbenzoylguanidine hydrochloride] | 
11 | 160 nM | N=C(N)NC(=O)c1cc(C(F)(F)F)ccc1Cl [Example 9, 2-Chloro-5-trifluoromethylbenzoylguanidine hydrochloride] | 
12 | 90 nM | N=C(N)NC(=O)c1cc(I)cc(C(F)(F)F)c1F [Example 10, 2-Fluoro-5-iodo-3-trifluoromethylbenzoylguanidine hydrochloride] | 
